Legend:
ITK = biological target: T1, ITK (Homo sapiens, UniProt Q08881); test: Kinase selectivity biochemical assay, ITK
T1 sequence (Q08881 1-620): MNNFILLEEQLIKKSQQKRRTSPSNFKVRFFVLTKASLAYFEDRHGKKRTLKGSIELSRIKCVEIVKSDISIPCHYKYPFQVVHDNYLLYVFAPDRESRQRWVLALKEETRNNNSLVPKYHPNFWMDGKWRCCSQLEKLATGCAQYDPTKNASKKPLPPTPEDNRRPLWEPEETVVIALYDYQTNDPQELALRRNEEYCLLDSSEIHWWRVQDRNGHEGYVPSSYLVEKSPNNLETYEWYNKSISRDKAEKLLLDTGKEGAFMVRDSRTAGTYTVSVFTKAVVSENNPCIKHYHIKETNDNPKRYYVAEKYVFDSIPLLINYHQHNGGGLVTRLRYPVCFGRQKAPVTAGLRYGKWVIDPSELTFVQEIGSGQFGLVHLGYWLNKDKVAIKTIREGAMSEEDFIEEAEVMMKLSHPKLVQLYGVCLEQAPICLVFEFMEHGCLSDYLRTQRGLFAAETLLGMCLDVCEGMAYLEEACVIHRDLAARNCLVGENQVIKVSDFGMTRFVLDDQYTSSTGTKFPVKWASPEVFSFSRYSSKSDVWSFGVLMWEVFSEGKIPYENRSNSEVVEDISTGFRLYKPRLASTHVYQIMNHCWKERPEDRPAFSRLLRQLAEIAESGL

TXK = biological target: T2, TXK (Homo sapiens, UniProt P42681); test: Kinase biochemical assay (FRET), TXK; conditions: read-out: inhibitory activity on TXK
T2 sequence (P42681 1-527): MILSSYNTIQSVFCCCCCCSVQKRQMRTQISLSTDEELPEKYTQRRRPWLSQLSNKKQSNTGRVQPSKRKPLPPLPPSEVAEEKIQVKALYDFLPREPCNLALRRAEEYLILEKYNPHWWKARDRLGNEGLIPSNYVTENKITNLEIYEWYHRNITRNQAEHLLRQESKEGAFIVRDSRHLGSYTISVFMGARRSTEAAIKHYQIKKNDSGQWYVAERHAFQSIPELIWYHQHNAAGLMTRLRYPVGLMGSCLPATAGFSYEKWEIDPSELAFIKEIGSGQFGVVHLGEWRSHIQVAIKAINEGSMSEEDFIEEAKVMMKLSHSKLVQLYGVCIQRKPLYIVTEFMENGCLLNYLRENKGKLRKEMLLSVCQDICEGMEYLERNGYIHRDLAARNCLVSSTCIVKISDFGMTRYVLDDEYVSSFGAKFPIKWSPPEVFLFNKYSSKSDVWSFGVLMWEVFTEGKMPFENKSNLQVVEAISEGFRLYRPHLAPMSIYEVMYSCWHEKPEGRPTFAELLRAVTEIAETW

A431 = test: Cell growth inhibition in EGFR overexpressed A431; type: cell-based; conditions: Homo sapiens, A-431; cellular level; read-out: IC50, cell growth inhibition in EGFR overexppressed A431
CIA model rats = test: Collagen-induced arthritis (CIA) model, clinical score and body weight; type: in vivo, rat; conditions: for Arthritis clinical score: day 8, mean ± SEM
Experimental: All animals were obtained from Charles River Japan (150 ± 10 g, 6 weeks old). The experimental protocols were approved by the animal care and use committee of the Hanmi Research Center and performed in accordance with approved guidelines. Briefly, 7-week-old male Lewis rats were immunized with a collagen emulsion of equal volumes of IFA ([…], Sigma-Aldrich) and bovine type II collagen (total volume, 0.6 mL) via intradermal injection into the base of the tail. Seven days later, the rats were given a booster immunization of 0.3 ml of collagen emulsion in the same manner. The incidence of arthritis was 79% on day 6 after booster immunization, and the rats were randomized into 4 groups when the average clinical score of each animal was 2.8 (on a scale of 16) (n = 20 in each drug-administered group, n = 8 in the CIA control group). […] The arthritis score was determined by grading each paw from 0 to 4 based on erythema, swelling, and flexion of the joint. Body weight was also measured three times per week.

[1] = Plasma pharmacokinetics in CIA model rats; type: in vivo; conditions: Lewis, rat; for AUC(0-t) / Tmax / Cmax: day 9, mean ± SD; for Cmax: po
Experimental: After drug administration, whole blood was collected from CIA model rats and human subjects at the indicated times. Plasma was obtained by centrifugation at 12,000 rpm for 2 min and stored at − 20 °C until analysis.

Neutrophils (LPS) = test: High-dimensional phosphorylation analysis, Neutrophils (LPS); type: cell-based, human; conditions: 30 µM, 15'
Experimental: (§1) The analysis measured 94 intracellular signaling nodes (81 phosphorylation sites, 10 total protein levels and 3 methylation/acetylation sites) in stimulated immune cells, including B cells (IgM plus CD40L), CD4 + and CD8 + T cells (IL-2; CD3 plus CD28), monocytes (M-CSF), NK cells (IL-2), and granulocytes (LPS).

Monocytes (M-CSF) = test: High-dimensional phosphorylation analysis, Monocytes (M-CSF); type: cell-based, human
Experimental: as §1

C=CC(=O)Nc1cccc(Oc2nc(Nc3ccc(N4CCN(C)CC4)cc3)nc3ccoc23)c1 [Poseltinib]
selectivity toward BTK over ITK (ITK): 53 ×
IC50 (TXK): < 10 nM
IC50 (A431): > 500 nM
Arthritis clinical score (CIA model rats; 0.3 mg/kg oral once daily): 8.5 ± 0.5
Arthritis clinical score (CIA model rats; 1 mg/kg oral once daily): 6.7 ± 0.6
disease-induced body weight loss (CIA model rats; 3 mg/kg): prevented weight loss
Arthritis clinical score (CIA model rats; 3 mg/kg oral once daily): 2.7 ± 0.4
AUC(0-t) ([1]; 0.3 mg/kg oral): 2 ± 1.8 ng·h/mL
Tmax ([1]; 0.3 mg/kg oral): 36 ± 18 min
AUC(0-t) ([1]; 1 mg/kg oral): 10 ± 3.6 ng·h/mL
Tmax ([1]; 1 mg/kg oral): 30 min
AUC(0-t) ([1]; 3 mg/kg oral): 49.9 ± 10.4 ng·h/mL
Tmax ([1]; 3 mg/kg oral): 84 ± 108 min
concentration at 4 h ([1]; oral, all treatment groups (0.3, 1, 3 mg/kg), day 9, below LLOQ, read-out: plasma concentration at 4 h after drug administration): < 0.5 ng/mL
Cmax ([1]; 0.3 mg/kg, 0.3 mg/kg oral): 1.5 ± 0.5 ng/mL
Cmax ([1]; 1 mg/kg, 1 mg/kg oral): 7.3 ± 3.3 ng/mL
Cmax ([1]; 3 mg/kg, 3 mg/kg oral): 22.6 ± 2.3 ng/mL
4ebp1 phosphorylation, Log2Ratio Stim/Control (Neutrophils (LPS)): 0.28
AKT1 phosphorylation, Log2Ratio Stim/Control (Neutrophils (LPS)): 0.66
AMPK phosphorylation, Log2Ratio Stim/Control (Neutrophils (LPS)): 0.29
Akt phosphorylation, Log2Ratio Stim/Control (Neutrophils (LPS)): 0.66
BTK phosphorylation, Log2Ratio Stim/Control (Neutrophils (LPS)): -0.25
HSP27 phosphorylation, Log2Ratio Stim/Control (Neutrophils (LPS)): 0.34
MAP2K1 phosphorylation, Log2Ratio Stim/Control (Neutrophils (LPS)): 2.38
MNK phosphorylation, Log2Ratio Stim/Control (Neutrophils (LPS)): 0.40
RPS6 phosphorylation, Log2Ratio Stim/Control (Neutrophils (LPS)): 0.66
AKT1 phosphorylation, Log2Ratio Stim/Control (Monocytes (M-CSF); 30 µM, 5'): 0.41
Akt phosphorylation, Log2Ratio Stim/Control (Monocytes (M-CSF); 30 µM, 5'): 1.06
BTK phosphorylation, Log2Ratio Stim/Control (Monocytes (M-CSF); 30 µM, 5'): -0.12
GSK3B phosphorylation, Log2Ratio Stim/Control (Monocytes (M-CSF); 30 µM, 5'): 0.82
HSP27 phosphorylation, Log2Ratio Stim/Control (Monocytes (M-CSF); 30 µM, 5'): 1.80
MAPK3 phosphorylation, Log2Ratio Stim/Control (Monocytes (M-CSF); 30 µM, 5'): 1.88
NDRG1 phosphorylation, Log2Ratio Stim/Control (Monocytes (M-CSF); 30 µM, 5'): 0.97
RELB phosphorylation, Log2Ratio Stim/Control (Monocytes (M-CSF); 30 µM, 5'): 0.82
RPS6KA1 phosphorylation, Log2Ratio Stim/Control (Monocytes (M-CSF); 30 µM, 5'): 1.33
RPS6 phosphorylation, Log2Ratio Stim/Control (Monocytes (M-CSF); 30 µM, 5'): 0.89
AKT phosphorylation in monocytes stimulated with M-CSF (Monocytes (M-CSF); data not shown): did not inhibit
